Values of other authors in publication PMC8436411 (ACS Medicinal Chemistry Letters, 2021).
Values after ≈ are worked out from the molar mass of the structure shown.

Legend:
S. aureus (ATCC 29213) = details: Table S3; ref 10 (SI); cited from earlier work
E. coli (ATCC 25922) = details: Table S3; ref 10 (SI); cited from earlier work
E. coli D22 = details: Table S3; mutation in the lpxC gene that increases membrane permeability; ref 10 (SI); cited from earlier work
[1] = test system: E. coli N43 (CGSC no. 5583); details: Table S3; AcrA knockout strain; ref 10 (SI); cited from earlier work
MRSA (QA-11.7) = details: Table S3; ref 10 (SI); cited from earlier work
[2] = test system: Salmonella alachua RDK 030c (QA-1482/04); details: Table S3; ref 10 (SI); cited from earlier work
[3] = test system: Pseudomonas aeruginosa RDK 184 (DSM 939); details: cited from earlier work; for MIC P. aeruginosa RDK 184 (DSM 939): Table S3, ref 10 (SI)
[4] = test system: Streptococcus agalactiae RDK 047 (QA-990/02); details: Table S3; ref 10 (SI); cited from earlier work
[5] = test system: Enterococcus faecalis DRK 057 (ATCC 29212); details: Table S3; ref 10 (SI); cited from earlier work

SMILES	MIC S. aureus (ATCC 29213) (S. aureus (ATCC 29213))	MIC E. coli (ATCC 25922) (E. coli (ATCC 25922))	MIC E. coli D2 (E. coli D22)	MIC E. coli N43 (CGSC# 5583) [1]	MIC MRSA (QA-11.7) (MRSA (QA-11.7))	MIC S. alachua RDK 030c (QA-1482/04) [2]	MIC P. aeruginosa RDK 184 (DSM 939) [3]	MIC Pseudomonas aeruginosa RDK 184 (DSM 939) [3]	MIC S. agalactiae RDK 047 (QA-990/02) [4]	MIC E. faecalis DRK 057 (ATCC 29212) [5]
COc1ccc2nccc(CCN3CCC(NCc4ccc(Cl)cc4)CC3)c2n1 [Compound 1]	0.304 µM (≈ 0.125 µg/mL)	9.73 µM (≈ 4 µg/mL)	4.87 µM (≈ 2 µg/mL)	1.22 µM (≈ 0.501 µg/mL)	1.22 µM (≈ 0.501 µg/mL)	77.9 µM (≈ 32 µg/mL)	> 311 µM	>128 µg/mL	2.43 µM (≈ 0.999 µg/mL)	2.43 µM (≈ 0.999 µg/mL)
COc1ccc2nccc(CCN3CCC(NCc4ccc(Br)cc4)CC3)c2n1 [Compound 2]	0.068 µM (≈ 0.031 µg/mL)	4.39 µM (≈ 2 µg/mL)	0.274 µM (≈ 0.125 µg/mL)	0.274 µM (≈ 0.125 µg/mL)	0.136 µM (≈ 0.0619 µg/mL)	35.1 µM (≈ 16 µg/mL)	281 µM (≈ 128 µg/mL)	–	1.098 µM (≈ 0.5 µg/mL)	2.20 µM (≈ 1 µg/mL)
